MIC and Activity data for five compounds are collected here from ChEMBL document CHEMBL1255343, “Activities of daptomycin and comparative antimicrobials, singly and in combination, against extracellular and intracellular Staphylococcus aureus and its stable small-colony variant in human monocyte-derived macrophages and in broth” (2008).

Values after ≈ are worked out from the molar mass of the structure shown. Active and inactive are the calls of the source. No cut-off for these calls is given here.

The MIC is the least concentration at which growth counts as inhibited. A lower MIC goes with a more susceptible organism.

Experiment [1] concerns Staphylococcus aureus. Put plainly: Antimicrobial activity against Staphylococcus aureus 2549 small colony variants. Format: functional.
For experiment [2], the system named is Staphylococcus aureus. Put plainly: Antimicrobial activity against Staphylococcus aureus 2547 small colony variants. Format: functional.
The subject of experiment [3] is Staphylococcus aureus. Put plainly: Antimicrobial activity against Staphylococcus aureus 2548. The format is functional.
Experiment [4] has as its system Staphylococcus aureus. The experiment is described as follows: Antimicrobial activity against Staphylococcus aureus 2546. Format: functional.
The test system of experiment [5] is Staphylococcus aureus. The experiment is described as follows: Antimicrobial activity against intracellular Staphylococcus aureus 2548 infected in human monocyte-derived macrophages after 48 hrs. The format is functional, organism-based.
Experiment [6] concerns Staphylococcus aureus. The experiment is described as follows: Antimicrobial activity against extracellular Staphylococcus aureus 2549 small colony variants after 4 hrs in MH-II broth. The format is functional, organism-based.
Experiment [7] concerns Staphylococcus aureus. The experiment is described as follows: Antimicrobial activity against extracellular Staphylococcus aureus 2546 after 4 hrs in MH-II broth. Format: functional, organism-based.
The test system of experiment [8] is Staphylococcus aureus. Put plainly: Antimicrobial activity against extracellular Staphylococcus aureus 2548 after 4 hrs in MH-II broth. The format is functional, organism-based.

As for `Cc1onc(-c2ccccc2)c1C(=O)N[C@@H]1C(=O)N2[C@@H]1SC(C)(C)[C@@H]2C(=O)O` [OXACILLIN], the MIC against Staphylococcus aureus [1] stood at 0.5 µg/mL (≈ 1.25 µM); in the experiment with Staphylococcus aureus [2], 0.5 µg/mL (≈ 1.25 µM); against Staphylococcus aureus [3] it was 0.25 µg/mL (≈ 0.623 µM); against Staphylococcus aureus [4] it was 0.25 µg/mL (≈ 0.623 µM).

Regarding `CCC[C@@H]1C[C@@H](C(=O)N[C@@H]([C@H]2O[C@H](SC)[C@H](O)[C@@H](O)[C@H]2O)[C@H](C)Cl)N(C)C1` [CLINDAMYCIN], the MIC amounted to 0.25 µg/mL (≈ 0.588 µM) in the experiment with Staphylococcus aureus [1], 0.25 µg/mL (≈ 0.588 µM) with Staphylococcus aureus [2], 0.06 µg/mL (≈ 0.141 µM) against Staphylococcus aureus [3] and 0.125 µg/mL (≈ 0.294 µM) with Staphylococcus aureus [4].

`CO[C@H]1/C=C/O[C@@]2(C)Oc3c(C)c(O)c4c(O)c(c(/C=N/N5CCN(C)CC5)c(O)c4c3C2=O)NC(=O)/C(C)=C\C=C\[C@H](C)[C@H](O)[C@@H](C)[C@@H](O)[C@@H](C)[C@H](OC(C)=O)[C@@H]1C` [RIFAMPIN]: the MIC against Staphylococcus aureus [1] came out at 0.06 µg/mL (≈ 0.0729 µM); in the experiment with Staphylococcus aureus [2], 0.06 µg/mL (≈ 0.0729 µM); against Staphylococcus aureus [3], 0.125 µg/mL (≈ 0.152 µM); with Staphylococcus aureus [4], 0.125 µg/mL (≈ 0.152 µM). For the same compound, the result in the experiment with Staphylococcus aureus [5] was Active.

For `CCCCCCCCCC(=O)N[C@@H](Cc1c[nH]c2ccccc12)C(=O)N[C@H](CC(N)=O)C(=O)N[C@@H](CC(=O)O)C(=O)N[C@@H]1C(=O)NCC(=O)N[C@@H](CCCN)C(=O)N[C@@H](CC(=O)O)C(=O)N[C@H](C)C(=O)N[C@@H](CC(=O)O)C(=O)NCC(=O)N[C@H](CO)C(=O)N[C@@H]([C@H](C)CC(=O)O)C(=O)N[C@@H](CC(=O)c2ccccc2N)C(=O)O[C@@H]1C`, the minimal inhibitory concentration (MIC) in the experiment with Staphylococcus aureus [1] is 0.5 µg/mL (≈ 0.309 µM); in the experiment with Staphylococcus aureus [2], 1 µg/mL (≈ 0.617 µM); in the experiment on Staphylococcus aureus [3], 1 µg/mL (≈ 0.617 µM); in the experiment with Staphylococcus aureus [4], 1 µg/mL (≈ 0.617 µM). The result with Staphylococcus aureus [6], in the experiment on Staphylococcus aureus [7], in the experiment on Staphylococcus aureus [8] and with Staphylococcus aureus [5] was Active.

As for GENTAMICIN, the minimal inhibitory concentration (MIC) was 16 µg/mL in the experiment with Staphylococcus aureus [1], 4 µg/mL against Staphylococcus aureus [2], 8 µg/mL in the experiment on Staphylococcus aureus [3] and 2 µg/mL against Staphylococcus aureus [4]. Further, the result in the experiment on Staphylococcus aureus [6], in the experiment with Staphylococcus aureus [7], in the experiment with Staphylococcus aureus [8] and in the experiment on Staphylococcus aureus [5] was Active.
